According to patent US20260250322A1, “NEW PEPTIDES AS SELECTIVE IL-23 RECEPTOR INHIBITORS” (SANOFI, priority 2023, published 2026):
Numbered stars: 1 amine (or outer) side, 2 acyl side, 3 side chain; on linkers, the order of the positions; unused ones are H or OH. Bridge positions count the residues as written; N and C are the ends. Square brackets hold non-standard residues; d marks the D form. Peptide text beside a SMILES is read from it. Tyr(Me) = Yme = 4-methoxy-L-phenylalanine (O-methyl-tyrosine), COc1ccc(C[C@H](N[*:1])C(=O)[*:2])cc1; 1Nal = N[C@@H](Cc1cccc2ccccc12)C(=O)O; 2Nal = N[C@@H](Cc1ccc2ccccc2c1)C(=O)O; AEF = NCCOc1ccc(C[C@H](N)C(=O)O)cc1; Orn = NCCC[C@H](N)C(=O)O; Thp = NC1(C(=O)O)CCOCC1; Aib = CC(C)(N)C(=O)O

T1: IL-23 receptor on the surface of HEK-Blue IL-23 cells (UniProt Q5VWK5 24-629, limits assumed)
T1 sequence (looked up): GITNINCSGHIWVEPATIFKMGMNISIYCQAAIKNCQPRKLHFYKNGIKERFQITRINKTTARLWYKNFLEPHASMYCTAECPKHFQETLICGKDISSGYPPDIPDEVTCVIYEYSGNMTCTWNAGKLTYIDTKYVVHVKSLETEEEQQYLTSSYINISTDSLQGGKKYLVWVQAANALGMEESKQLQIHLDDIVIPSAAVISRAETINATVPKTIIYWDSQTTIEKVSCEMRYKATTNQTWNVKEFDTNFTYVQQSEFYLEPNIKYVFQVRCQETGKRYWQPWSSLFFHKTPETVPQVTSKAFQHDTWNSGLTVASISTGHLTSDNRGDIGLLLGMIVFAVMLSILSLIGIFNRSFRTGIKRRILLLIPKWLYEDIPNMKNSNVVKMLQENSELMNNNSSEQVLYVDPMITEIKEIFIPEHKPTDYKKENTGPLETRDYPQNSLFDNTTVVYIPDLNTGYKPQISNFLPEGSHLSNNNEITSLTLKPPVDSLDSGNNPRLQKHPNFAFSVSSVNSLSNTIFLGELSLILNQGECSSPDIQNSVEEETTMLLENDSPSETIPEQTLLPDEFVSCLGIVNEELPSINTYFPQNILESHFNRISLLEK

B1: peptide compound SEQ ID NO: 5 (peptide)
peptide: Ac-[dK]NTWQR[Tyr(Me)][2Nal][Aib]ENN-NH2
modifications: lactam 1-10
SMILES: COc1ccc(C[C@@H]2NC(=O)[C@H](CCCNC(=N)N)NC(=O)[C@H](CCC(N)=O)NC(=O)[C@H](Cc3c[nH]c4ccccc34)NC(=O)[C@H]([C@@H](C)O)NC(=O)[C@H](CC(N)=O)NC(=O)[C@H](NC(C)=O)CCCCNC(=O)CC[C@@H](C(=O)N[C@@H](CC(N)=O)C(=O)N[C@@H](CC(N)=O)C(N)=O)NC(=O)C(C)(C)NC(=O)[C@H](Cc3ccc4ccccc4c3)NC2=O)cc1
B2: peptide compound SEQ ID NO: 7 (peptide)
peptide: Ac-[dK]NTWQL[Tyr(Me)][1Nal][Aib]DNN-NH2
modifications: lactam 1-10
SMILES: COc1ccc(C[C@@H]2NC(=O)[C@H](CC(C)C)NC(=O)[C@H](CCC(N)=O)NC(=O)[C@H](Cc3c[nH]c4ccccc34)NC(=O)[C@H]([C@@H](C)O)NC(=O)[C@H](CC(N)=O)NC(=O)[C@H](NC(C)=O)CCCCNC(=O)C[C@@H](C(=O)N[C@@H](CC(N)=O)C(=O)N[C@@H](CC(N)=O)C(N)=O)NC(=O)C(C)(C)NC(=O)[C@H](Cc3cccc4ccccc34)NC2=O)cc1
B3: peptide compound SEQ ID NO: 41 (peptide)
peptide: Ac-KNTWQR[Tyr(Me)][2Nal][Thp]DNN-NH2
modifications: lactam 1-10
SMILES: COc1ccc(C[C@@H]2NC(=O)[C@H](CCCNC(=N)N)NC(=O)[C@H](CCC(N)=O)NC(=O)[C@H](Cc3c[nH]c4ccccc34)NC(=O)[C@H]([C@@H](C)O)NC(=O)[C@H](CC(N)=O)NC(=O)[C@@H](NC(C)=O)CCCCNC(=O)C[C@@H](C(=O)N[C@@H](CC(N)=O)C(=O)N[C@@H](CC(N)=O)C(N)=O)NC(=O)C3(CCOCC3)NC(=O)[C@H](Cc3ccc4ccccc4c3)NC2=O)cc1
B4: peptide compound SEQ ID NO: 8 (peptide)
peptide: Ac-[dK]NTWQA[Tyr(Me)][1Nal][Aib]DNN-NH2
modifications: lactam 1-10
SMILES: COc1ccc(C[C@@H]2NC(=O)[C@H](C)NC(=O)[C@H](CCC(N)=O)NC(=O)[C@H](Cc3c[nH]c4ccccc34)NC(=O)[C@H]([C@@H](C)O)NC(=O)[C@H](CC(N)=O)NC(=O)[C@H](NC(C)=O)CCCCNC(=O)C[C@@H](C(=O)N[C@@H](CC(N)=O)C(=O)N[C@@H](CC(N)=O)C(N)=O)NC(=O)C(C)(C)NC(=O)[C@H](Cc3cccc4ccccc34)NC2=O)cc1
B5: peptide compound SEQ ID NO: 6 (peptide)
peptide: Ac-DNTWQR[Tyr(Me)][2Nal][Aib][Orn]NN-NH2
modifications: lactam 1-10
SMILES: COc1ccc(C[C@@H]2NC(=O)[C@H](CCCNC(=N)N)NC(=O)[C@H](CCC(N)=O)NC(=O)[C@H](Cc3c[nH]c4ccccc34)NC(=O)[C@H]([C@@H](C)O)NC(=O)[C@H](CC(N)=O)NC(=O)[C@@H](NC(C)=O)CC(=O)NCCC[C@@H](C(=O)N[C@@H](CC(N)=O)C(=O)N[C@@H](CC(N)=O)C(N)=O)NC(=O)C(C)(C)NC(=O)[C@H](Cc3ccc4ccccc4c3)NC2=O)cc1

These molecules were tested against T1, IL-23 receptor on the surface of … (assay: cell-based or functional assay). Conditions: not given.

Inhibition of IL-23 induced pSTAT3 (IC50 nM) [nM] | Molecule
432 | B1
850 | B2
221 | B3
943 | B4
366 | B5

The molecules below were run on IL-23 induced STAT3 signaling (assay: Inhibition of IL-23 induced STAT3 signaling in HEK-Blue IL-23 cells (SEAP reporter)). Conditions: human IL-23 0.25 ng/ml, read-out: Inhibition of IL-23 induced pSTAT3 (IC50 nM).
Assay type: cell-based
Description: HEK-Blue™ IL-23 cells (Invivogen) are designed for the detection of bioactive human (hIL-23) and murine IL-23 (mIL-23) by monitoring the activation of the STAT3 pathway. Binding of IL-23 to its receptor on the surface of HEK-Blue™ IL-23 cells triggers a signaling cascade leading to the activation of STAT3 and the subsequent production of secreted embryonic alkaline phosphatase (SEAP). This can be readily assessed using QUANTI-Blue™ Solution, a SEAP detection reagent.
HEK-Blue™ IL-23 cells were cultured as described by Invivogen.
On the first day of assay 10 μL of the HEK-Blue IL-23 cell suspension (final concentration: 10,000 cells/well) and 10 μl of serially diluted compound solutions were dispensed into a 384-well assay plate. After pre-incubation of the reaction mixtures at 37° C./5% CO2/95% humidity for 60 minutes, 10 μl of the humanIL-23 cytokine (final concentration: 0.25 ng/ml) was added to each well for the STAT3 signaling activation. The plate was incubated overnight at 37° C./5% CO2/95% humidity.
On the second day 20 μl per well of Quanti-Blue detection solution (prepared according to the manufacture instruction) was dispensed into a new 384-well plate and followed by the transfer of 5 μl supernatant of the overnight incubated cell/sample mixtures. After incubation of 45 min at room temperature signals were measured with PHERAstar (BMG) at OD 620-655 nm.
Dose response data were fitted with XLfit.

IC50 [nM] | Molecule
8010 | COc1ccc(C[C@@H]2NC(=O)[C@H](CCCNC(=N)N)NC(=O)[C@H](CCC(N)=O)NC(=O)[C@H](Cc3c[nH]c4ccccc34)NC(=O)[C@H]([C@@H](C)O)NC(=O)[C@H](CC(N)=O)NC(=O)[C@H](NC(C)=O)CCCCNC(=O)CC[C@@H](C(=O)N[C@@H](CC(N)=O)C(=O)N[C@@H](CC(N)=O)C(N)=O)NC(=O)C(C)(C)NC(=O)[C@H](Cc3cccc4ccccc34)NC2=O)cc1 [compound 16] (Ac-[dK]NTWQRY(Me)[1Nal][Aib]ENN-NH2; lactam 1-10)
1380 | CC(=O)N[C@@H]1CCCCNC(=O)C[C@@H](C(=O)N[C@@H](CC(N)=O)C(=O)N[C@@H](CC(N)=O)C(N)=O)NC(=O)C(C)(C)NC(=O)[C@H](Cc2cccc3ccccc23)NC(=O)[C@H](Cc2ccc(O)cc2)NC(=O)[C@H](CCCNC(=N)N)NC(=O)[C@H](CCC(N)=O)NC(=O)[C@H](Cc2c[nH]c3ccccc23)NC(=O)[C@H]([C@@H](C)O)NC(=O)[C@H](CC(N)=O)NC1=O [compound 14] (Ac-[dK]NTWQRY[1Nal][Aib]DNN-NH2; lactam 1-10)
1570 | CC(=O)N[C@H]1CCCNC(=O)CC[C@@H](C(=O)N[C@@H](CC(N)=O)C(=O)N[C@@H](CC(N)=O)C(N)=O)NC(=O)C(C)(C)NC(=O)[C@H](Cc2ccc3ccccc3c2)NC(=O)[C@H](Cc2ccc(OCCN)cc2)NC(=O)[C@H](CCCNC(=N)N)NC(=O)[C@H](CCC(N)=O)NC(=O)[C@H](Cc2c[nH]c3ccccc23)NC(=O)[C@H]([C@@H](C)O)NC(=O)[C@H](CC(N)=O)NC1=O [compound 38] (Ac-[Orn]NTWQR[AEF][2Nal][Aib]ENN-NH2; lactam 1-10)
2210 | COc1ccc(C[C@@H]2NC(=O)[C@H](CCCNC(=N)N)NC(=O)[C@H](CCC(N)=O)NC(=O)[C@H](Cc3c[nH]c4ccccc34)NC(=O)[C@H]([C@@H](C)O)NC(=O)[C@H](CC(N)=O)NC(=O)[C@H](NC(C)=O)CCCCNC(=O)C[C@@H](C(=O)N[C@@H](CC(N)=O)C(=O)N[C@@H](CC(N)=O)C(N)=O)NC(=O)[C@H](CCCCNC(C)=O)NC(=O)[C@H](Cc3ccc4ccccc4c3)NC2=O)cc1 [compound 28] (Ac-[dK]NTWQRY(Me)[2Nal]K(Ac)DNN-NH2; lactam 1-10)
5650 | COc1ccc(C[C@@H]2NC(=O)[C@H](CCCNC(=N)N)NC(=O)[C@H](CCC(N)=O)NC(=O)[C@H](Cc3c[nH]c4ccccc34)NC(=O)[C@H]([C@@H](C)O)NC(=O)[C@H](CC(N)=O)NC(=O)[C@H](NC(C)=O)CCCCNC(=O)C[C@@H](C(=O)N[C@@H](CC(N)=O)C(=O)N[C@@H](CC(N)=O)C(N)=O)NC(=O)[C@H](CCCCNC(C)=O)NC(=O)[C@H](Cc3cccc4ccccc34)NC2=O)cc1 [compound 17] (Ac-[dK]NTWQRY(Me)[1Nal]K(Ac)DNN-NH2; lactam 1-10)
8110 | COc1ccc(C[C@@H]2NC(=O)[C@H](CCCNC(=N)N)NC(=O)[C@H](CCC(N)=O)NC(=O)[C@H](Cc3c[nH]c4ccccc34)NC(=O)[C@H]([C@@H](C)O)NC(=O)[C@H](CC(N)=O)NC(=O)[C@H](NC(C)=O)CCCCNC(=O)C[C@@H](C(=O)N[C@@H](CC(N)=O)C(N)=O)NC(=O)C(C)(C)NC(=O)[C@H](Cc3ccc4ccccc4c3)NC2=O)cc1 [compound 26] (Ac-[dK]NTWQRY(Me)[2Nal][Aib]DN-NH2; lactam 1-10)
6050 | COc1ccc(C[C@@H]2NC(=O)[C@H](CCCNC(=N)N)NC(=O)[C@H](CCC(N)=O)NC(=O)[C@H](Cc3c[nH]c4ccccc34)NC(=O)[C@H]([C@@H](C)O)NC(=O)[C@H](CC(N)=O)NC(=O)[C@H](NC(C)=O)CCCCNC(=O)C[C@@H](C(=O)N[C@@H](CC(N)=O)C(=O)N[C@@H](CC(N)=O)C(N)=O)NC(=O)[C@H](CCC(N)=O)NC(=O)[C@H](Cc3ccc4ccccc4c3)NC2=O)cc1 [compound 30] (Ac-[dK]NTWQRY(Me)[2Nal]QDNN-NH2; lactam 1-10)
9600 | COc1ccc(C[C@@H]2NC(=O)[C@H](CCCNC(=N)N)NC(=O)[C@H](CCC(N)=O)NC(=O)[C@H](Cc3c[nH]c4ccccc34)NC(=O)[C@H]([C@@H](C)O)NC(=O)[C@H](CC(N)=O)NC(=O)[C@H](NC(C)=O)CCCCNC(=O)C[C@@H](C(=O)N[C@@H](CC(N)=O)C(=O)N[C@@H](CC(N)=O)C(N)=O)NC(=O)[C@H](CCC(N)=O)NC(=O)[C@H](Cc3cccc4ccccc34)NC2=O)cc1 [compound 19] (Ac-[dK]NTWQRY(Me)[1Nal]QDNN-NH2; lactam 1-10)
